Source: patent publication US9878984B2, “Anti-cancer compounds” (NORTHWESTERN UNIVERSITY, priority 2008, dated 2018)
“Also recorded” adds a separate entry of the source.

Key:
Type in all cases: cell-based, human
[1] = test system: HeLa cells; test: Perinucleolar compartment (PNC) prevalence reduction; details: for PNC prevalence reduction at [GI50%]: [GI50%] for 72 hr
Description: Perinucleolar Compartment (PNC) Reduction: HeLa cells (PNC prevalence ˜85%) were plated 5,000/well in glass bottom 96 well plates and allowed to attach for 8 hr. The cells were then treated with compounds at the respective [GI50%] for 72 hr and [GI99%] for 20 hr for each compound (total media volume was 200 μL/well with 1% DMSO). After treatment cells were immunofluorescently stained as previously described, but with a Texas Red labeled secondary antibody (Jackson) instead of a FITC labeled secondary antibody. PNC prevalence (% of non-apoptotic/non-mitotic cells with 1 or more PNCs) was determined by scoring >200 cells per well with fluorescent microscope (60× objective) and images were acquired with the digital camera and image acquisition software previously mentioned. Scale bar=10 μm. Data are expressed as the average PNC prevalence (% control) of three individual experiments.
The PNC is a unique structural marker that it is only found in malignantly transformed cancer cells, irrespective of tissue origin, and indicates cells that are capable of metastasis. […] Previous studies indicate that the PNC likely conveys a functional metastatic advantage to cancer cells. The PNC prevalence (% of cells with one or more PNC) in human breast cancer positively correlates with the progression of the disease and is always near 100% in distant metastases. […] The PNC prevalence reduction was determined for amonafide and A1-A9 at the respective [GI50%] and [GI99%] doses in HeLa cells, which have a high PNC prevalence of ˜85%.

[2] = test system: HeLa cells; test: Transwell invasion assay; details: [GI99%], matrigel, 20 hr
Description: Transwell Invasion Assay: HeLa cells were plated at 250,000 per 35 mm well and allowed to attach for 8 hr. The cells were washed with PBS and then treated for 4 hr with the [GI99%] of each compound (or 1% DMSO—vehicle control) in serum free media to decrease the number of invading cells in the beginning of the experiment due to a preliminary lack of drug exposure. The cells were then trypsinized and counted by trypan blue exclusion with a hemacytometer (Sigma—St. Louis, Mo.). Eight micron pore size control well inserts for 12 well plates (BD Biosciences) were coated with 100 μL 1 mg/mL matrigel (Sigma—St. Louis, Mo.) and allowed to solidify at room temperature for 1 hr. The excess matrigel was aspirated and the inserts were gently washed with PBS. The cells were seeded at a density of 300,000 per insert well in a volume of 500 μL serum free media containing a derivative or vehicle. The inserts were then placed in wells containing 700 μL serum free media with the respective compound. After 20 hr the cells on the top of the membranes were gently removed with a cotton swab, the membranes then were fixed in methanol for 1 min, stained in Gills No. 3 Hematoxylin (Sigma—St. Louis, Mo.) for 5 min, rinsed in tap water, and allowed to dry overnight. The membranes were excised, mounted on slides, and the cells were counted under the 40× objective of a bright field microscope. The data are expressed as the average total number of invading cells counted in 20 fields of each membrane, as standardized to the vehicle control, from six experiments.
Effect of derivatives on the malignant phenotype—invasion assay: If A1-A9 have differential targets, DNA binding specificity, or downstream effects they may differentially alter the malignant behavior of cells. Also, anti-cancer compounds can be efficacious against tumors in other ways besides inhibiting growth and inducing death of cancer cells; they can also alter the behavior of malignant cells. Therefore, the ability of A1-A9 and amonafide to alter the invasive behavior of cancer cells in a transwell (also known as Boyden chamber) invasion assay was evaluated, which determines the ability of cells to migrate through a proteinacious gel. This behavior is considered to be representative of cancer cell invasion through the basement membrane of the primary tumor environment. In this assay, treated cells are seeded on to the top of the matrigel-coated porous membrane, allowed to invade through the proteinacious gel onto the underside of the membrane, and then counted.

[3] = test system: Normal cells (PBMC, HUVEC, and WI-38); test: Cancer cell selective growth inhibition (cancer cells vs normal cells); details: 72 hr MTS
Description: […] Peripheral blood mononuclear cells (PBMCs) were voluntarily collected from a healthy laboratory worker by standard sterile phlebotomy techniques and isolated using Vacutainer CPT collection tubes (BD Biosciences—Bedford, Mass.). PBMCs were isolated freshly for each experiment. All DMEM and RPMI-1640 media was supplemented with 10% FBS (Atlanta Biologicals—Lawrenceville, Ga.) and 100 U/mL penicillin and streptomycin (Invitrogen). HUVEC (Human umbilical vein endothelial cells) were cultured in EGM-2 media with supplements provided in the manufacturers BulletKit (Lonza—Walersville, Md.). All cells were maintained at 37° C. and in a 5% CO2 atmosphere.
Growth Inhibition Assays: HeLa, MDA-MB-231, PC-3M, WI-38, and HUVEC cells were plated at 5,000 cells per well in 96 well plates and allowed to attach for 20 hr (8 hr for HeLa). The media was removed and 198 μL of fresh media was added to each well. […] PBMCs were isolated and plated at 100,000 per well in 96 well plates with a volume of 197 μL. They were allowed to settle in the media for 20 hr, at which point 1 μL of 1 mg/mL phytohemagglutinin (Sigma—St. Loius Mo.) in PBS was added to stimulate proliferation (final concentration of 5 μg/mL). […] Cell proliferation was measured at t=0 (time at start of treatment) and t=72 hr using MTS AQueous non-radioactive proliferation assay (Promega—Madison, Wis.). This assay utilizes the metabolic conversion of yellow tetrazolium to a purple formazan by live cells and the color change is proportional to the number of cells. […] The absorbance at 490 nm in each well was read with a Spectramax 250 plate reader (Molecular Devices—Sunnyvale, Calif.). […] Data were fit to one site dose response curves in order to obtain specific growth inhibitory concentrations and the relative standard errors of the mean for these concentrations were calculated by the XLfit4 software. Statistical significance (p value) for the selectivity and all subsequent assays was determined with the two tailed homoscedastic Student's t-test. […]

In the case of CN(C)CCN1C(=O)c2cccc3c(N)ccc(c23)C1=O [A1, 6-amino-2-[2-(dimethylamino)ethyl]-1H-benz[de]isoquinoline-1,3(2H)-dione], the “PNC prevalence reduction at [GI50%]” value [1] is reported as “able effectively reduce the PNC; also recorded: can significantly reduce PNC prevalence”, the “invasive behavior (% invading cells vs vehicle)” value [2] is reported as “did not significantly alter the invasive behavior of HeLa cells compared to the control” and the “cancer cell selective growth inhibition (selectivity)” value [3] is reported as “near identical to amonafide”.

With CN(C)CCN1C(=O)c2cccc3cc(N)cc(c23)C1=O [amonafide, reference compound] the “PNC prevalence reduction at [GI50%]” value [1] was “able effectively reduce the PNC; also recorded: can significantly reduce PNC prevalence”, the “PNC prevalence reduction at [GI99%]” value ([1]; [GI99%] for 20 hr) was “able to greatly reduce the PNC prevalence” and the “invasive behavior (% invading cells vs vehicle)” value [2] was “did not significantly alter the invasive behavior of HeLa cells compared to the control”. For the same compound, the “cancer cell selective growth inhibition (selectivity)” value [3] was “slightly more potent (but not with statistical significance) or equally potent at inhibiting the growth of cancer cells over normal cells”.
